Laboratory results reported in the supplement of paper PMC10883282.

How the values were obtained:
Experiment in all cases: relative viability vs DMSO control (72 h) (fraction); higher = more viable cells
RD = tested on: RD
Outline: (§1)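 Sarcoma cell lines in 384-well plates, seeded to reach 80–90% confluence, were given compound after 24 h and kept 72 h at 37 °C, 5% CO2, with 0.1% DMSO vehicle and a 5 µM positive control. Relative viability came from ATPLite as percent growth, averaged over up to triplicate wells. On the rescaled values, 1 equals full and 0 equals none.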

SK-ES-1 = tested on: SK-ES-1
Outline: as §1

HT1080 = tested on: HT1080
Outline: as §1

KHOS-240S = tested on: KHOS-240S
Outline: as §1

SK-LMS-1 = tested on: SK-LMS-1
Outline: as §1

VA-ES-BJ = tested on: VA-ES-BJ
Outline: as §1

MES-SA = tested on: MES-SA
Outline: as §1

G401 = tested on: G401
Outline: as §1

SW1353 = tested on: SW1353
Outline: as §1

RD-ES = tested on: RD-ES
Outline: as §1

SYO-1 = tested on: SYO-1
Outline: as §1

SW982 = tested on: SW982
Outline: as §1

Cc1ccc(Nc2nccc(N(C)c3ccc4c(C)n(C)nc4c3)n2)cc1S(N)(=O)=O [Pazopanib]
Details	relative viability
G401, 0.00017 µM	0.952
G401, 0.00051 µM	1.01
G401, 0.00152 µM	0.994
G401, 0.00457 µM	0.983
G401, 0.01372 µM	1
G401, 0.04115 µM	0.949
G401, 0.1235 µM	0.909
G401, 0.3704 µM	0.864
G401, 1.111 µM	0.857
G401, 3.333 µM	0.696
G401, 10 µM	0.449
HT1080, 0.00017 µM	1.03
HT1080, 0.00051 µM	1.064
HT1080, 0.00152 µM	1.04
HT1080, 0.00457 µM	1.05
HT1080, 0.01372 µM	1.045
HT1080, 0.04115 µM	1.05
HT1080, 0.1235 µM	1.03
HT1080, 0.3704 µM	1.03
HT1080, 1.111 µM	1.05
HT1080, 3.333 µM	1.07
HT1080, 10 µM	1.07
KHOS-240S, 0.00017 µM	1.03
KHOS-240S, 0.00051 µM	1.04
KHOS-240S, 0.00152 µM	1.05
KHOS-240S, 0.00457 µM	1.04
KHOS-240S, 0.01372 µM	1.03
KHOS-240S, 0.04115 µM	1.02
KHOS-240S, 0.1235 µM	0.975
KHOS-240S, 0.3704 µM	0.974
KHOS-240S, 1.111 µM	0.932
KHOS-240S, 3.333 µM	0.88
KHOS-240S, 10 µM	0.621
MES-SA, 0.00017 µM	0.9224
MES-SA, 0.00051 µM	0.925
MES-SA, 0.00152 µM	0.931
MES-SA, 0.00457 µM	0.934
MES-SA, 0.01372 µM	0.933
MES-SA, 0.04115 µM	0.928
MES-SA, 0.1235 µM	0.922
MES-SA, 0.3704 µM	0.95
MES-SA, 1.111 µM	0.931
MES-SA, 3.333 µM	0.824
MES-SA, 10 µM	0.517
RD, 0.00017 µM	1.11
RD, 0.00051 µM	1.12
RD, 0.00152 µM	1.12
RD, 0.00457 µM	1.11
RD, 0.01372 µM	1.11
RD, 0.04115 µM	1.12
RD, 0.1235 µM	1.12
RD, 0.3704 µM	1.13
RD, 1.111 µM	1.12
RD, 3.333 µM	1.16
RD, 10 µM	1.1
RD-ES, 0.00017 µM	0.95
RD-ES, 0.00051 µM	0.95
RD-ES, 0.00152 µM	0.968
RD-ES, 0.00457 µM	0.962
RD-ES, 0.01372 µM	0.985
RD-ES, 0.04115 µM	0.975
RD-ES, 0.1235 µM	0.96
RD-ES, 0.3704 µM	0.973
RD-ES, 1.111 µM	1
RD-ES, 3.333 µM	0.9311
RD-ES, 10 µM	0.727
SK-ES-1, 0.00017 µM	1.02
SK-ES-1, 0.00051 µM	1.001
SK-ES-1, 0.00152 µM	1.02
SK-ES-1, 0.00457 µM	1.03
SK-ES-1, 0.01372 µM	1.02
SK-ES-1, 0.04115 µM	1.02
SK-ES-1, 0.1235 µM	1.02
SK-ES-1, 0.3704 µM	1
SK-ES-1, 1.111 µM	1.01
SK-ES-1, 3.333 µM	0.916
SK-ES-1, 10 µM	0.524
SK-LMS-1, 0.00017 µM	0.993
SK-LMS-1, 0.00051 µM	1
SK-LMS-1, 0.00152 µM	1.02
SK-LMS-1, 0.00457 µM	1.06
SK-LMS-1, 0.01372 µM	1.01
SK-LMS-1, 0.04115 µM	0.998
SK-LMS-1, 0.1235 µM	0.973
SK-LMS-1, 0.3704 µM	0.9626
SK-LMS-1, 1.111 µM	0.981
SK-LMS-1, 3.333 µM	0.935
SK-LMS-1, 10 µM	0.776
SW982, 0.00017 µM	1.04
SW982, 0.00051 µM	1.01
SW982, 0.00152 µM	1.03
SW982, 0.00457 µM	1.03
SW982, 0.01372 µM	1.05
SW982, 0.04115 µM	1.05
SW982, 0.1235 µM	1.03
SW982, 0.3704 µM	1.04
SW982, 1.111 µM	1.06
SW982, 3.333 µM	1.016
SW982, 10 µM	0.729
SW1353, 0.00017 µM	0.962
SW1353, 0.00051 µM	0.952
SW1353, 0.00152 µM	0.94
SW1353, 0.00457 µM	0.977
SW1353, 0.01372 µM	0.96
SW1353, 0.04115 µM	0.947
SW1353, 0.1235 µM	0.946
SW1353, 0.3704 µM	0.939
SW1353, 1.111 µM	0.931
SW1353, 3.333 µM	0.89
SW1353, 10 µM	0.8
SYO-1, 0.00017 µM	0.919
SYO-1, 0.00051 µM	0.901
SYO-1, 0.00152 µM	0.882
SYO-1, 0.00457 µM	0.862
SYO-1, 0.01372 µM	0.823
SYO-1, 0.04115 µM	0.777
SYO-1, 0.1235 µM	0.685
SYO-1, 0.3704 µM	0.576
SYO-1, 1.111 µM	0.506
SYO-1, 3.333 µM	0.471
SYO-1, 10 µM	0.369
VA-ES-BJ, 0.00017 µM	1.04
VA-ES-BJ, 0.00051 µM	1.05
VA-ES-BJ, 0.00152 µM	1.07
VA-ES-BJ, 0.00457 µM	1.05
VA-ES-BJ, 0.01372 µM	1.06
VA-ES-BJ, 0.04115 µM	1.07
VA-ES-BJ, 0.1235 µM	1.08
VA-ES-BJ, 0.3704 µM	1.12
VA-ES-BJ, 1.111 µM	1.14
VA-ES-BJ, 3.333 µM	1.12
VA-ES-BJ, 10 µM	1.06
